This note sets out measurements from paper PMC10349806 (Nature Communications, 2023).

Values joined by “and” are separate entries in the source; they are usually repeats but may differ in a detail not shown here. Equal values may be shown once.

Holding throughout (type): cell-based, Plasmodium falciparum
In one assay the test system is PfCRT variant E207D. Description: CQ uptake assay, oocytes expressing E207D. Here is the method: (§1) Site-directed mutagenesis of PfCRT^Dd2 was performed as described using the megaprimer method with overlap extension[21],[54]. The primer pairs used are listed in Supplementary Table 6. Please note that a codon-optimized and oocyte-adapted version of PfCRT^Dd2 was used[22] (Supplementary Fig. 16). The resulting DNA fragment was cloned into the SP64T expression vector and verified by sequencing.
(§2) Oocytes were obtained as described previously. Briefly, adult (>2 years old) female X. laevis frogs (NASCO) were anesthetized in a cooled solution of ethyl 3-amino benzoate methanesulfonate (0.1%, w/v), followed by a surgical removal of parts of the ovary. The ovary lobes were carefully dissected and small pieces of oocytes were incubated in Ca^2+-free ND96 buffer (96 mM NaCl, 2 mM KCl, 1 mM MgCl2 buffered with 5 mM HEPES/NaOH, pH 7.5) supplemented with collagenase D (0.1%, w/v; Roche), BSA (0.5%, w/v), and 9 mm Na2HPO4 at 18 °C for 14-16 h while gentle shaking. After incubation, the oocytes were carefully washed several times with ND96 buffer (96 mM NaCl, 2 mM KCl, 1.8 mM CaCl2, 1 mM MgCl2 buffered with 5 mM HEPES/NaOH, pH 7.5) supplemented with 100 mg l^−1 gentamycin). Defolliculated and healthy-looking stage V-VI oocytes were manually selected for RNA microinjection. The RNA was generated as following: The codon-optimized sequences of PfCRT variants were cloned into the pSP64T expression vector. After vector linearization using the restriction endonucleases BamHI or SalI (New England Biolabs), transcription was performed using the in vitro SP6 mMessage mMachine Kit (Ambion)[34]. The obtained RNA was kept at −80 °C and diluted with nuclease-free water to a concentration of 0.6 μg μl^−1. Precision-bore glass capillary tubes (3.5-inch glass capillaries; Drummond Scientific Co.) were pulled on a vertical puller (P-87 Flaming/Brown micropipette puller, Sutter Instrument Co.), graduated, and placed on a microinjector (Nanoject II Auto-Nanoliter Injector, Drummond Scientific Co.). 50 nl of nuclease-free water alone (control oocytes) or 50 nl of 0.6 μg μl^−1 RNA were injected under stereomicroscopic control. Injected oocytes were incubated for 46–72 h at 18 °C with twice-daily buffer changes before usage in experiments.
Drug uptake assays were performed as described previously[21],[22],[24],[34]. […] The direction of radio-labeled drug transport is here from the mostly acidic extracellular solution (pH 4.5 or 6.0, as indicated) into the oocyte cytosol (pH ∼ 7.2), which corresponds to the efflux of drug from the acidic digestive vacuole (pH 5.2) into the parasite cytoplasm (pH 7.2). The topology of PfCRT in the oolemma is such that both the N- and C-terminus face the extracellular milieu[3],[22]. In the parasite, the N- and C-terminus face the lumen of the digestive vacuole. CQ uptake kinetics were performed by incubating oocytes in ND96 buffer adjusted to a pH of 4.5, 5.0, 5.5, or 6.0 and supplemented with 50 nM [^3H]CQ and one of 7 different CQ concentrations (10 µM, 50 µM, 100 µM, 200 µM, 300 µM, 400 µM, 500 µM CQ). The reaction was stopped at the 60 min time point, which is in the linear uptake range[22],[34] (Supplementary Fig. 17). For determination of the amount of drug uptake for each oocyte, the reaction medium was removed and the oocytes were washed three times with 2 ml of ice-cold ND96 buffer. Each oocyte was individually transferred to a scintillation vial containing 5% sodium dodecyl sulfate (200 μl) for lysis. The radioactivity of each sample was measured using a liquid scintillation analyzer Tri-Carb 4910 TR (PerkinElmer). Oocytes that were injected with water instead of RNA were analyzed in parallel, representing the uptake of a drug by diffusion and/or endogenous permeation pathways. The resulting value represents the “background“ level of drug accumulation in oocytes (in-depth discussion in[22]). […]

The next assay concerns PfCRT variant E207W. Description: CQ uptake assay, oocytes expressing E207W. Here is the method:
as §1, §2
Drug uptake assays were performed as described previously[21],[22],[24],[34]. […] The direction of radio-labeled drug transport is here from the mostly acidic extracellular solution (pH 4.5 or 6.0, as indicated) into the oocyte cytosol (pH ∼ 7.2), which corresponds to the efflux of drug from the acidic digestive vacuole (pH 5.2) into the parasite cytoplasm (pH 7.2). The topology of PfCRT in the oolemma is such that both the N- and C-terminus face the extracellular milieu[3],[22]. In the parasite, the N- and C-terminus face the lumen of the digestive vacuole. […] For determination of the amount of drug uptake for each oocyte, the reaction medium was removed and the oocytes were washed three times with 2 ml of ice-cold ND96 buffer. Each oocyte was individually transferred to a scintillation vial containing 5% sodium dodecyl sulfate (200 μl) for lysis. […] Oocytes that were injected with water instead of RNA were analyzed in parallel, representing the uptake of a drug by diffusion and/or endogenous permeation pathways. The resulting value represents the “background“ level of drug accumulation in oocytes (in-depth discussion in[22]). The specific PfCRT-mediated uptake was determined by subtracting the corresponding background value measured in water-injected oocytes from that of PfCRT-expressing oocytes. In all cases, at least three separate experiments were performed on oocytes from different frogs (biological replicate), and for each condition in an experiment, measurements were made from 10 oocytes per treatment. For pH 5.5, 6.0, and 6.5, ND96 was buffered with 5 mM MES/Tris base.

For the next assay, the system named is PfCRT variant D329N. The assay is described as follows: CQ uptake assay, oocytes expressing D329N. As to the method:
as §1, §2
Drug uptake assays were performed as described previously[21],[22],[24],[34]. […] The direction of radio-labeled drug transport is here from the mostly acidic extracellular solution (pH 4.5 or 6.0, as indicated) into the oocyte cytosol (pH ∼ 7.2), which corresponds to the efflux of drug from the acidic digestive vacuole (pH 5.2) into the parasite cytoplasm (pH 7.2). The topology of PfCRT in the oolemma is such that both the N- and C-terminus face the extracellular milieu[3],[22]. In the parasite, the N- and C-terminus face the lumen of the digestive vacuole. CQ uptake kinetics were performed by incubating oocytes in ND96 buffer adjusted to a pH of 4.5, 5.0, 5.5, or 6.0 and supplemented with 50 nM [^3H]CQ and one of 7 different CQ concentrations (10 µM, 50 µM, 100 µM, 200 µM, 300 µM, 400 µM, 500 µM CQ). The reaction was stopped at the 60 min time point, which is in the linear uptake range[22],[34] (Supplementary Fig. 17). […] The radioactivity of each sample was measured using a liquid scintillation analyzer Tri-Carb 4910 TR (PerkinElmer). Oocytes that were injected with water instead of RNA were analyzed in parallel, representing the uptake of a drug by diffusion and/or endogenous permeation pathways. […]

Where [1] appears, read: E207D, 50 µM CQ, 1 h, mean ± SEM.
Where [2] appears, read: pH 4.5, individual replicates, Fig 6b.
The mark [3] stands for this setting: pH 6.0, individual replicates, Fig 6b.
[4] abbreviates: ratio of activity pH 4.5 / pH 6.0.
[5] abbreviates: E207W, 50 µM CQ, 1 h, mean ± SEM.
Setting [6] is: D329N, 50 µM CQ, 1 h, mean ± SEM.

Consider `CCN(CC)CCCC(C)Nc1ccnc2cc(Cl)ccc12` (centres unmarked) [CQ, chloroquine], for which the results for the “Activity at pH 4.5” value with PfCRT variant E207D (setting [1]), in the assay on PfCRT variant E207W (setting [5]) and in the assay on PfCRT variant D329N (setting [6]) were 1.82 ± 0.06 pmol h-1 oocyte-1, 2.40 ± 0.17 pmol h-1 oocyte-1 and 0.39 ± 0.14 pmol h-1 oocyte-1, respectively. Further, the results for the “Activity at pH 6.0” value in the assay on PfCRT variant E207D (setting [1]), in the assay with PfCRT variant E207W (setting [5]) and in the assay with PfCRT variant D329N (setting [6]) were 5.13 ± 0.37 pmol h-1 oocyte-1, 3.18 ± 0.35 pmol h-1 oocyte-1 and 1.25 ± 0.32 pmol h-1 oocyte-1, respectively. Besides, the R-value is reported as 0.36 ± 0.05 in the assay with PfCRT variant E207D (E207D, CQ transport at pH 4.5 / pH 6.0); 0.78 ± 0.06 with PfCRT variant E207W (E207W, CQ transport at pH 4.5 / pH 6.0); 0.32 ± 0.07 in the assay with PfCRT variant D329N (D329N, CQ transport at pH 4.5 / pH 6.0). Further, in the assay on PfCRT variant E207D (setting [2]), the “E207D transport activity pH 4.5” value is 1.93 pmol oocyte-1 h-1 and 1.78 pmol oocyte-1 h-1 and 1.98 pmol oocyte-1 h-1 and 1.89 pmol oocyte-1 h-1 and 1.82 pmol oocyte-1 h-1 and 1.51 pmol oocyte-1 h-1. The “E207D transport activity pH 6.0” value in the assay on PfCRT variant E207D (setting [3]) was 4.59 pmol oocyte-1 h-1 and 4.25 pmol oocyte-1 h-1 and 6.63 pmol oocyte-1 h-1 and 6.08 pmol oocyte-1 h-1 and 4.42 pmol oocyte-1 h-1 and 4.78 pmol oocyte-1 h-1. Further, in the assay on PfCRT variant E207D (setting [4]), the “E207D R-value” was 0.42 and 0.30 and 0.31 and 0.41 and 0.32. Besides, in the assay on PfCRT variant E207W (setting [2]), the “E207W transport activity pH 4.5” value was 2.68 pmol oocyte-1 h-1 and 2.94 pmol oocyte-1 h-1 and 1.91 pmol oocyte-1 h-1 and 1.82 pmol oocyte-1 h-1 and 2.34 pmol oocyte-1 h-1. Also, in the assay on PfCRT variant E207W (setting [3]), the “E207W transport activity pH 6.0” value was 2.46 pmol oocyte-1 h-1 and 4.37 pmol oocyte-1 h-1 and 2.52 pmol oocyte-1 h-1 and 2.14 pmol oocyte-1 h-1 and 3.58 pmol oocyte-1 h-1 and 4.02 pmol oocyte-1 h-1. Also, the “E207W R-value” in the assay on PfCRT variant E207W (setting [4]) was 0.67 and 0.76 and 0.85 and 0.65. Besides, the “D329N transport activity pH 4.5” value with PfCRT variant D329N (pH 4.5, single replicates, Fig 1d left) is 0.14 pmol oocyte-1 h-1 and 0.71 pmol oocyte-1 h-1 and 0.33 pmol oocyte-1 h-1. Further, the “D329N transport activity pH 6.0” value in the assay with PfCRT variant D329N (pH 6.0, single replicates, Fig 1d left) is 0.49 pmol oocyte-1 h-1 and 1.49 pmol oocyte-1 h-1 and 1.76 pmol oocyte-1 h-1.
